# According to PubChem BioAssay AID651557 (The Scripps Research Institute Molecular Screening Center, 2012):
# Active and inactive are the calls of the source.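 How the source made its calls: active means IC50 half-maximal inhibitory concentration at most 10 µM; inactive means IC50 above 10 µM.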
# Biological target: Melanocortin receptor 4 (Homo sapiens) (UniProt P32245)
# Test: MC4R antagonists blocking beta-arrestin recruitment, late-stage follow-up, luminescence, biased ligand project, U2OS cells (AID 651557)
# Settings: beta-gal complementation luminescence
# Melanocortin receptor 4 (Homo sapiens), sequence (P32245 whole entry, looked up): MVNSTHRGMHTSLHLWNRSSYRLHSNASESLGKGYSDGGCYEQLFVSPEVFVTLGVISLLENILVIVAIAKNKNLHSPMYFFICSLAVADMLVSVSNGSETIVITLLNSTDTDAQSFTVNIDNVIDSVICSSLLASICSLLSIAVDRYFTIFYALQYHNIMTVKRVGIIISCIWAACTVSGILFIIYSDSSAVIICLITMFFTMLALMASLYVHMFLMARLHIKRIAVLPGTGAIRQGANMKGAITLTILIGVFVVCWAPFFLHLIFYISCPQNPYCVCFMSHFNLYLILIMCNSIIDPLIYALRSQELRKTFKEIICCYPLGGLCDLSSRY
row,SMILES,IC50
1,CNC(=O)c1cc(Oc2ccc(NC(=O)CNc3ccc(Cl)c(C(F)(F)F)c3)cc2)ccn1,> 50 µM (inactive)
2,CCC1CCCCN1S(=O)(=O)c1ccc(NC(=O)c2cccc(S(C)(=O)=O)c2)cc1 (configuration not stated),> 50 µM (inactive)
3,CNC(=O)c1cc(Oc2ccc(NCC(=O)Nc3ccc(Cl)c(C(F)(F)F)c3)cc2)ccn1,> 50 µM (inactive)
4,CCC1CCCCN1S(=O)(=O)c1ccc(NC(=O)c2ccnc(SC)n2)cc1 (configuration not stated),> 50 µM (inactive)
5,C#CC(=O)N(c1ccc(OC)c(OC)c1)C(C(=O)NC1CCCC1)c1cccs1 (configuration not stated),inactive
6,CC1CCCCN1S(=O)(=O)c1ccc(NC(=O)c2nc(S(C)(=O)=O)ncc2Cl)cc1 (configuration not stated),3.55 µM
7,COc1ccc(N(C(C)=O)C(C(=O)NC2CCCC2)c2cccs2)cc1OC (configuration not stated),> 50 µM (inactive)
8,COc1ccccc1C1(CCNC(C)c2cccs2)CCOC(C(C)C)C1 (configuration not stated),6.73 µM
9,CC(=O)c1ccc(Nc2nc3ccc(C(=O)N(CCC(C)C)CCC(C)C)cc3n2CCCN2CCCCC2)cc1,0.00232 µM
10,CCC1CCCCN1S(=O)(=O)c1ccc(NC(=O)c2ccccc2)cc1 (configuration not stated),> 50 µM (inactive)
11,O=C1c2cccc3cccc(c23)C(=O)N1CC1CCN(CC(O)COc2ccc3ccccc3c2)CC1 (configuration not stated),> 50 µM (inactive)
12,Cc1ccccc1CN1Cc2cnnn2-c2ccccc2C1C#N (configuration not stated),inactive
